ChEMBL document CHEMBL1781880, “Total synthesis and evaluation of 22-(3-azidobenzoyloxy)methyl epothilone C for photoaffinity labeling of beta-tubulin” (2009)
Active and inactive are the calls of the source. The calls are words filed in the database; no cut-off is given here.

Key:
[1] = Cytotoxicity against human NCI/ADR cells by phototoxicity labeling study; format: functional; settings: NCI/ADR-RES, light or radiation study, read-out: ED50 (the source's name)
[2] = Induction of microtubule assembly by photoaffinity labeling study
[3] = system: MCF7; assay: Cytotoxicity against human MCF7 cells by […] labeling study; format: functional; settings: MCF7, light or radiation study, read-out: ED50 (the source's name)
[4] = Ratio of ED50 for epothilone B to ED50 for compound for induction of microtubule assembly by photoaffinity labeling study
[5] = Induction of microtubule assembly by photoaffinity labeling study in presence of epothilone B
[6] = Ratio of ED50 for epothilone B to ED50 for compound for human NCI/ADR cells; format: functional
[7] = system: MCF7; assay: Ratio of ED50 for epothilone B to ED50 for compound for human MCF7 cells; format: functional

Compound | EC50 [1] [µM] | ED50 [2] [µM] | EC50 [3] [µM] | Ratio ED50 [4] | Activity [5] | Ratio ED50 [6] | Ratio ED50 [7]
C/C(=C\c1csc(C)n1)[C@@H]1C/C=C\CCC[C@H](C)[C@H](O)[C@@H](C)C(=O)[C@](C)(CCOC(=O)c2cccc(N=[N+]=[N-])c2)[C@@H](O)CC(=O)O1 | 1 | 5.1 | 1.2 | 5.1 | inactive | 833 | 632
C/C(=C\c1csc(C)n1)[C@@H]1C[C@@H]2O[C@]2(C)CCC[C@H](C)[C@H](O)[C@@H](C)C(=O)C(C)(C)[C@@H](O)CC(=O)O1 [PATUPILONE] | 0.0012 | 1 | 0.0015 |  |  |  | 
